Where no end group is shown, it is not given here. [ ]: non-standard residue; d: D form. Cit = NC(=O)NCCC[C@H](N)C(=O)O
Experiments:
[1] = test system: RA synovial membrane cultures; experiment: Spontaneous cytokine synthesis in RA synovial membrane cultures incubated with FBG peptides; format: cell-based, human; details: for inhibition of cytokine synthesis at the highest concentrations / TNF and IL8 synthesis: RA synovial membrane cultures; for inhibition of cytokine synthesis at the highest concentrations: dose dependent, 25, 100 or 250 μM peptide, 24 h; for TNF and IL8 synthesis: spontaneous cytokine synthesis
Protocol: RA membrane cells (representing a mixed population of all synovial cell types) were isolated from synovial membranes obtained from patients undergoing joint replacement surgery (Brennan (1989)). Synovial membrane tissue was digested in RPMI 1640 (GIBCO) containing 5% fetal calf serum (FCS) (GIBCO), 5 mg/ml collagenase type IV (Sigma) and 0 15 mg/ml DNAse type I (Sigma) and incubated at 37° C. for 2 h.
Immediately after isolation, RA membrane cells were cultured at 1×10^5 cells/well in RPMI 1640 containing 10% (v/v) FBS and 100 U/ml penicillin/streptomycin in 96-well tissue culture plates. Cells were incubated for 24 h at 37° C. with no addition, buffer control (PBS, 1% BSA, 0.01% NaN3), or with 25 μm, 100 μM or 250 μM of each FBG spanning peptide.
(§1) Supernatants were examined for the presence of the cytokines TNF-α, IL-6, and IL-8 by enzyme-linked immunosorbent assay (ELISA) according to the manufacturer's instructions (R&D systems). Absorbance was read on a spectrophotometric ELISA plate reader (Labsystems Multiscan Biochromic, Vantaa, Finland) and analyzed using the Ascent software program (Thermo Labsystems, Altrincham, UK).

human macrophages = experiment: FBG or LPS induced cytokine synthesis in human macrophages pre-incubated with FBG peptides; format: cell-based; details: pre-incubation with 20 μM peptide, 24 h; for FBG mediated cytokine synthesis: then 1 μM whole FBG
Protocol: (§2) After incubation the tissue was pipetted through a nylon mesh into a sterile beaker. The cells were then washed three times in complete medium (RPMI 1640 supplemented with 10% FCS). RA synovial fibroblasts were isolated from the mixed population of RA membrane cells by selection in DMEM (Bio-Whittaker) supplemented with 10% FBS, […], 100 U/ml penicillin, and streptomycin. Human monocytes were isolated from peripheral blood (London Blood Bank) and macrophages were derived from monocytes after differentiation for 4 days with 100 ng/ml of M-CSF.
(§3) Macrophages were cultured at 1×10^5 cells/well in RPMI 1640 containing 5% (v/v) FBS and 100 U/ml penicillin/streptomycin in 96-well tissue culture plates for 24 h before stimulation. Cells were incubated for 24 h at 37° C. with no addition, 1.0 μM FBG, 1 ng/ml LPS or 1 or 20 μM FBG peptide. Where stated, cells were pre-incubated with 20 μM FBG peptides for 15 min.
as §1

MyD88 = experiment: Cytokine synthesis in embryonic fibroblasts from MyD88 deficient mice; format: cell-based; details: for cytokine synthesis: MEFs from MyD88 deficient mice, 24 h; for responsiveness after re-transfection of wild type MyD88: MyD88 deficient MEFs, data not shown
Protocol: (§4) MEFs express high levels of mRNA of all 9 murine TLRs and are specifically and highly responsive to TLR ligand activation. […] MEFs were isolated from d13 embryos harvested from age-matched, pregnant female wild type, TLR2, TLR4 and null mice (as described in Todaro (1963)). Fibroblasts were cultured at 2×10^4 cells/well in DMEM containing 10% (v/v) FBS and 100 U/ml penicillin/streptomycin in 96-well tissue culture plates for 24 hours before stimulation.
(§5) Cells were incubated for 24 hours at 37° C. with the indicated doses of tenascin-C and recombinant tenascin-C fragments (1.0 μM-1.0 nM). Cells were also stimulated where indicated with LPS (1 ng/ml for human macrophages, 10 ng/ml for human fibroblasts, RA membrane cells and HEKs, 100 ng/ml for MEFS and BMDMs and 10 ng/ml for HEKS), PAM3 (10 ng/ml for human macrophages, human fibroblasts, and HEKs, 100 ng/ml for MEFs and BMDMs), murine IL-1 (5 ng/ml for MEFS) and murine TNF-α (100 ng/ml for MEFS). Unless specifically stated otherwise rough LPS was used for in vitro studies.
as §1, with “were subsequently” for “were”, “instructions.” for “instructions (R&D systems).”

RA sera = experiment: IgG response to cyclic citrullinated FBG peptides in RA and control sera; format: binding, human; details: 20 RA and 20 control sera
Source text: (A) Peptides with sequences corresponding to the amino acid sequence of FBG were designed, with the addition of cysteine residues at the amino and carboxy termini and the exchange of arginine for citrulline residues at positions identified by LC-MS/MS. (B) IgG response to citrullinated FBG peptides and arginine containing control peptides in patients with rheumatoid arthritis (RA; n=20) and healthy controls (n=20). The 95th percentile of the control sera was used to determine positivity (dashed line). Mann-Whitney U test was used to calculate p values for differences between groups (n.s.=no significant difference, *=p<0.05 and **=p<0.01, ***=p<0.001, […]).
With reference to FIG. 31, the antibody response in 20 RA and 20 control sera to 6 cyclic FBG peptides, encompassing citrulline residues was evaluated.

[2] = test system: human dermal fibroblasts (HDF); experiment: Cell adhesion to coated FBG, human dermal fibroblasts; format: cell-based; details: coated wells, 45 minutes, crystal violet
Protocol: (§6) (A) The sequence identified to bind integrin ≢vβ3 is shown in white (Yokoyama et al., 2000). Within this sequence two Arginines (shown in black) were identified to be citrullinated. (B) Wells of a 96 well plate were coated with different concentrations of FBG, citrullinated FBG (cFBG), FBG incubated in buffer without Calcium (FBG —Ca^2+), or FBG incubated without PAD (FBG -PAD). As a positive control wells were coated with Fibronectin (FN) (1 ug/ml), and coating with BSA (10 mg/ml) served as negative control. Plates were incubated with human dermal fibroblasts (HDF) or synovial fibroblasts from RA patients (RAF) for 45 minutes and adhesion was measured by determining absorbance of attached cells after staining with crystal violet (0.1%). Data are shown as the mean of at least four independent experiments+s.e.m., *=p<0.05, **=p<0.01.

[3] = test system: synovial fibroblasts from RA patients (RAF); experiment: Cell adhesion to coated FBG, RA synovial fibroblasts; format: cell-based, human; details: coated wells, 45 minutes, crystal violet
Protocol: as §6

[4] = test system: primary human macrophages; experiment: TNF synthesis in primary human macrophages stimulated with native or citrullinated FBG; format: cell-based; details: 0.1-1.0 μM, 24 h
Protocol: Equal volumes of protein and 2× citrullination buffer (200 mM Tris HCl, pH 7.4, 20 mM CaCl2, 10 mM DTT) were mixed. 8.75 U rabbit skeletal PAD (product number P1584 from Sigma) per mg substrate protein was added and incubated for 3 hours at 37° C. or 2 hours at 50° C. Citrullination was confirmed by size shift visualized by coomassie blue staining of SDS PAGE or by AMC detection.
Primary human macrophages were isolated as described above and cultured at 1×10^5 cells/well in RPMI 1640 containing 5% (v/v) FBS and 100 U/ml penicillin/streptomycin in 96-well tissue culture plates for 24 h before stimulation. Cells were incubated for 24 h at 37° C. with no addition (UN), different concentrations (uM) of native FBG (nFBG) or cit FBG (cFBG) or citrullination buffer alone (CIT) or cit buffer plus PAD enzyme (CIT+PAD).
as §1, with “TNF-α” for “TNF-α, IL-6, and IL-8”

[5] = test system: primary human macrophages; experiment: Stimulation of primary human macrophages with each FBG peptide; format: cell-based; details: 1 or 20 μM FBG peptide, 24 h
Protocol: as §2, §3, §1

TLR4 = experiment: Cytokine synthesis in embryonic fibroblasts or macrophages from TLR4 deficient mice; format: cell-based
Protocol: as §4
(§7) BMDMs were derived by aspirating the femurs of age matched female wild type, TLR2 and TLR4 null mice as described in Butler (1999)) and culturing the cells for 7 days in DMEM, 20% (v/v) FBS, 10 ml/L (v/v) antibiotic-antimycotic solution PSA, 50 μM β-Mercaptoethanol and 10 ng/ml M-CSF. Macrophages were then cultured at 1×10^5 cells/well in DMEM, 20% (v/v) FBS, 10 ml/L (v/v) antibiotic-antimycotic solution PSA, 50 μM β-Mercaptoethanol in 96-well tissue culture plates for 24 hours before stimulation.
as §5
as §1, with “were subsequently” for “were”, “instructions.” for “instructions (R&D systems).”

TLR2 = experiment: Cytokine synthesis in embryonic fibroblasts or macrophages from TLR2 deficient mice; format: cell-based
Protocol: as §4, §7, §5
as §1, with “were subsequently” for “were”, “instructions.” for “instructions (R&D systems).”

Which results are given for “WYRNCHRVNLMGRYGDNNHSQGVNWFHWKG [Peptide 8]”?
inhibition of cytokine synthesis at the highest concentrations [1]: 56%; TNF and IL8 synthesis ([1]; 24 h with peptide): inhibited; cytokine synthesis in response to LPS (human macrophages; then 1 ng/ml LPS): blocked; FBG mediated cytokine synthesis (human macrophages): blocked

Which cytokine synthesis (MyD88) does the source give for TNF-α [reference compound] here?
The cytokine synthesis was “unaffected”.

With “CEMKL-Cit-PSNF-Cit-NLEGRRKRC (CEMKL[Cit]PSNF[Cit]NLEGRRKRC; not fully specified (bridges); printed as CEMKL-Cit-PSNF-Cit-NLEGRRKRC; also: cyclic, bridge not given here) [CIT209/214]” as the molecule, how does the “antibody response in RA sera and control sera” value (“antibody response” below) (RA sera) read?
The value was “detected in RA sera but not control sera”.

“WIVFLRRKNGRENFYQNWKAYAAGFGDRRE [Peptide 3]” was tested. Which “inhibition of cytokine synthesis at the highest concentrations” value [1] did it give?
Its value is 95%.

And the “TNF and IL8 synthesis” value ([1]; 24 h with peptide)?
The value was “inhibited”.

Which “antibody response” value (RA sera) does the source give for “CVFLRRKNG-Cit-ENFYQNWC (CVFLRRKNG[Cit]ENFYQNWC; not fully specified (bridges); printed as CVFLRRKNG-Cit-ENFYQNWC; also: cyclic, bridge not given here) [CIT55]” here?
Its value is “detected in RA sera but not control sera”.

How did the “adhesion of human dermal fibroblasts (HDF)” value [2] turn out when “cFBG: FBG domain of tenascin-C citrullinated in vitro with PAD” was run?
The value was “reduces adhesion”.

And the “adhesion of synovial fibroblasts from RA joints (RAF)” value [3]?
The value was “reduces adhesion”.

And the “cytokine (TNFα) synthesis compared with native FBG” value [4]?
The value was “better at stimulating cytokine (e.g. TNFα) synthesis”.

Which TNF synthesis ([1]; RA membrane cells, 24 h with peptide) does the source give for “ELRVDLRDHGETAFAVYDKFSVGDAKTRYK [Peptide 5]” here?
Its TNF synthesis is “no effect”.

What about the “maximal inhibition of IL8 synthesis” value ([1]; RA membrane cells, dose dependent) of the same molecule?
Its value is 81%.

What about the cytokine synthesis [5] of the same molecule?
Its cytokine synthesis is “induced cytokine synthesis in a dose dependent manner”.

And the “FBG mediated cytokine synthesis” value (human macrophages)?
Its value is “specifically blocked”.

With “CEMKLRPSNFRNLEG-Cit-Cit-KRC (CEMKLRPSNFRNLEG[Cit][Cit]KRC; not fully specified (bridges); printed as CEMKLRPSNFRNLEG-Cit-Cit-KRC; also: cyclic, bridge not given here) [CIT219/220]” as the molecule, how does the “antibody response” value (RA sera) read?
The value was “detected in RA sera but not control sera”.

How did the cytokine synthesis [5] turn out when “KTRYKLKVEGYSGTAGDSMAYHNGRSFST [Peptide 6]” was run?
Its cytokine synthesis is “induced cytokine synthesis in a dose dependent manner”.

How did the cytokine synthesis (TLR4) turn out when Pam3Cys-Ser-Lys4 [reference compound] was run?
Its cytokine synthesis is “did respond”.

And the cytokine synthesis (MyD88)?
Its cytokine synthesis is “abolished”.

What about the “responsiveness after re-transfection of wild type MyD88” value (MyD88) of the same molecule?
The value was “restored the responsiveness”.

And the cytokine synthesis (TLR2)?
Its cytokine synthesis is “unresponsive”.

How did the cytokine synthesis [5] turn out when “TIGLLYPFPKDCSQAMLNGDTTSGLYTIYL [Peptide 1]” was run?
The cytokine synthesis was “induced cytokine synthesis in a dose dependent manner”.

B1: IL-1: murine IL-1 used to stimulate MEFs (protein, UniProt P10749 118-269, looked up)
Interleukin-1 beta: VPIRQLHYRLRDEQQKSLVLSDPYELKALHLNGQNINQQVIFSMSFVQGEPSNDKIPVALGLKGKNLYLSCVMKDGTPTLQLESVDPKQYPKKKMEKRFVFNKIEVKSKVEFESAEFPNWYISTSQAEHKPVFLGNNSGQDIIDFTMESVSS
For B1, which cytokine synthesis (TLR4) is on record?
Its cytokine synthesis is “did respond”.

And the cytokine synthesis (MyD88)?
Its cytokine synthesis is “abolished”.

And the “responsiveness after re-transfection of wild type MyD88” value (MyD88)?
Its value is “restored the responsiveness”.

And the cytokine synthesis (TLR2)?
The cytokine synthesis was “responsive”.

— US20170009228A1, “BIOLOGICAL MATERIALS AND THERAPEUTIC USES THEREOF” (IMPERIAL INNOVATIONS LIMITED, priority 2014, published 2017)
